Results published in patent US20080214669A1, “Composition and Method For Treating Hyperpigmented Skin” (LIPO CHEMICALS INC., priority 2005, published 2008).

What was measured:
[1] = clinical study of skin brightening efficacy and skin redness (chromameter readings); type: in vivo, human; settings: emulsion 0.3% by weight
Protocol: The skin brightening efficacy of p-HCA in ethoxydyglycol versus kojic acid also was tested in a clinical study. In this study, an emulsion containing 0.3%, by weight, p-HCA or kojic acid was used on twenty, mostly female, subjects between the ages of 30 to 50 years. The test composition was applied to the abdomen twice daily (a.m. and p.m.). The test was conducted for eight weeks, and chromameter readings were taken at baseline, and after 2, 4, 6, and 8 weeks.

skin enzymes = test: metabolism of p-HCA in homogenized human skin; type: in vitro ADME; settings: human skin homogenate in PBS-ethanol, 37° C., eight hours of incubation
Protocol: First, to confirm in vivo activity of p-HCA, the metabolism of p-HCA in the skin was determined. In this test, human skin was homogenized in a PBS (phosphate-buffered saline)-ethanol solution, followed by dissolution of p-HCA. The solution was incubated at 37° C. for 8 hours. Samples were taken after 0, 4, and 8 hours, and were centrifuged. The supernatant was filtered and analyzed by HPLC. […] The amount of p-HCA that is metabolized was considered insignificant with respect to an efficacious treatment of hyperpigmentation.

[2] = solubility of p-HCA in solvents / hydroxy-containing compounds (HPLC); type: physicochemical
Protocol: Various solvents were tested for an ability to dissolve p-HCA and provide a suitable composition for topical application to efficaciously treat hyperpigmentation. p-HCA was added to various solvents, then sonicated for two hours at 35° C. until no further HCA was dissolved. The samples were cooled to room temperature (25° C.) and allowed to stabilize for 15 hours. The undissolved p-HCA was allowed to settle, the supernatant liquid was filtered, and diluted with the HPLC mobile phase for assay. All samples were analyzed by HPLC on a Hypersil ODS C18 column using water, methanol, glacial acetic acid (55:45:1) as the mobile phase. The flow rate was 1 ml/min and the wavelength for detection was 270 nm. […] p-Hydroxycinnamic acid was added to the hydroxy-containing compound and sonicated until no further p-HCA dissolved after two hours of sonication at 35° C. The test sample was cooled to room temperature, then stabilized for 15 hours. After the p-HCA was allowed to settle, the supernatant was filtered through a 0.2 micron syringe filter. Approximately 0.08 g of this filtered material was weighed into a 25 ml volumetric flask and diluted to volume with HPLC mobile phase. Two standards were analyzed by HPLC and compared to the two samples. The HPLC assay was identical to the HPLC assay discussed above.

[3] = skin penetration, Franz diffusion cells; type: in vitro ADME, human
Protocol: In another experiment, a 10% solution of p-HCA in ethoxydiglycol first was prepared. This solution was added to a skin care emulsion in a sufficient amount to provide either 0.3% or 0.1%, by weight, of p-HCA in the final composition. As a comparative example, 0.3%, by weight, of solid p-HCA was added to the same skin care emulsion. The skin care emulsion to which solid p-HCA or the p-HCA solution was added had the following formula (w/w %): • 85.35 water • 0.2 methylparaben • 0.35 xanthan gum • 5.0 butylene glycol • 4.0 sesame oil • 2.5 glyceryl stearate
The skin care emulsions containing p-HCA were applied to cadaver skin. Skin penetration of p-HCA was studied using Franz diffusion cells, n=5 (Permegear, Bethlehem, Pa.). The receptor contained an isotonic phosphate buffer with 30% ethanol, and was stirred continuously at 600 rpm. Samples of dermatomed human cadaver skin (NDRA, Philadelphia) were placed on the cells and prehydrated for 1 hour prior to the experiment. One milliliter of each formulation was added to the donor compartment of each cell, which was covered tightly with PARAFILM®. Samples (300 μl) were withdrawn from the receptor compartment every hour over 8 hours, and replaced with 300 μl of fresh receptor solution. After 8 hours, the skin was removed and cut into small pieces. The skin pieces were homogenized using a Kinematica POLYTRON® homogenizer and centrifuged. The supernatant was filtered through 0.22μ filters, and the p-HCA content was quantified.
All samples were analyzed by HPLC on a Hypersil ODS C18 column using water, methanol, glacial acetic acid (55:45:1) as the mobile phase at a flow rate of 1 ml/min and detection at 270 nm. Lag time and flux were obtained from permeation profiles and skin drug content also was recorded.
The following formula was tested for skin penetration: • Water 28.1% (by wt); • Carbopol 981 (2%) 17.0%; • Ethanol SDA 40b-190 53.0%; • Glycerin 1.0%; • Triethanolamine 0.4%; • p-Hydroxycinnamic acid 0.5%.
The method used to determine skin permeability was the Franz diffusion method disclosed above. […] In particular, 3.9 mcg/ml of p-HCA was found in the receptor compartment of the skin (i.e., permeated through the skin) as opposed to 16.3 mcg/ml p-HCA found within the skin.

[4] = hydroethanolic Carbopol gel formula with 0.5% p-hydroxycinnamic acid
[5] = in presence of ethoxydiglycol vs powder form

Row | Structure (SMILES) | skin redness ([1]; throughout the eight-week clinical trial) | skin redness ([1]; weeks 4 and 8) | p-HCA metabolized (skin enzymes) [%] | solubility ([2]; 30% hydroethanolic solution) [wt %] | solubility ([2]; Ethanol) [wt %] | solubility ([2]; PEG-8) [wt %] | solubility ([2]; butylene glycol) [wt %] | solubility ([2]; glycereth-26) [wt %] | solubility ([2]; pentylene glycol) [wt %] | solubility ([2]; silicone fluid DC 193) [wt %] | amount deposited in the skin relative to amount transmitted through the skin [3, 4] | p-HCA found in the receptor compartment (permeated through the skin) [3, 4] [µg/mL] | elevation of percent p-HCA that permeates cadaver skin [3, 5] [%] | elevation of percentage of p-HCA that remained within the skin [3, 5]
1 | O=c1cc(CO)occ1O [kojic acid] | did not reduce redness | induced redness | – | – | – | – | – | – | – | – | – | – | – | –
2 | O=C(O)C=Cc1ccc(O)cc1 [p-HCA, p-hydroxycinnamic acid] | – | – | 3.6 | 0.75 | 14.8 | 5.4 | 2.25 | 7 | 1.75 | 4.7 | four times greater | 3.9 | 43 | about 50%
